Earlier results, collected in patent publication US12201642B2, “Composition for the treatment of COVID-19” (priority 2020, dated 2025).

Key:
HCMV = details: cultures of smooth muscle cells

## CC(=O)Oc1ccccc1C(=O)O [Aspirin, Acetylsalicylic acid]
HCMV
  reduction of the yield of HCMV (factor): 2-3
Influenza A H1N1 virus
  antiviral effectiveness: highly effective
Influenza virus; as anti-influenza agent
  toxic side-effects: no toxic side-effects
Influenza virus; in vitro and in vivo
  effect on influenza virus replication: efficiently blocks influenza virus replication
